{
  "source": "patent US9888679B2",
  "about": "“Protection of progenitor cells and regulation of their differentiation” (Proteobioactives Pty Ltd, priority 2007, dated 2018)",
  "key": {"[1]": {"test_system": "Murine Progenitor Cell (C3H10T1/2)", "assay": "Proteoglycan biosynthesis (35S-GAG) and DNA content in monolayer cultures", "format": "cell-based", "conditions": "for biosynthesis of proteoglycans: all concentrations of PPS", "procedure": "FIG. 9. Concentration dependent effects of Pentosan Polysulfate (PPS) on Murine Progenitor Cell (progenitor cells C3H10T1/2) biosynthesis of Proteoglycans (PGs) and DNA content when grown in monolayer cultures. Data shown=Means±SD.\n(§1) Murine Progenitor cells (cell lines C3H10T1/2 or ATDC5) purchased from RIKEN Cell Bank (Tsukuba, Japan) or human immunoselected Stro-1+ Progenitor cells (Mesoblast Ltd, Melbourne, Australia) were seeded into 50 mL plastic culture flasks containing 1:1 high glucose DMEM/Ham's F-12 medium (Invitrogen) supplemented with 10% FBS (Sigma) and incubated at 37° C., in 5% CO2. After confluence was reached, progenitor cells were released by trypsinization and harvested by centrifugation. Cells were inoculated to 96-well or 24-well plates at a density of 3×10^4 cells or 2×10^5 cells per well. After 48-hour incubation at 37° C., 5% CO2 confluent monolayers were normally established. The medium was then changed to defined medium, which contained different concentrations of PPS with and without rhNC4 and 5 μCi/ml of ^35S—H2SO4 (PerkinElmer, USA). The experiments were generally terminated after 48 hours incubation when proteoglycan biosynthesis was determined by measuring the incorporation of ^35SO4 into the glycosaminoglycans (^35S-GAGs) as described below.\n(A) 96-well plates: Cultures were subjected to proteolytic digestion with papain to release glycosaminoglycans. The papain stock solution used contained 2.5 mg/ml papain (Sigma), 7.9 mg/ml cysteine-HCl (Sigma) in papain digest buffer (0.1M NaAc, 5 mM EDTA, pH6.0). 50 μl of papain stock solution was added to each well. The plate was sealed using plastic sheeting and incubated at 65° C. for 2 hours. […]\nThe ^35SO4-GAGs in the remained solution (200 ul) were precipitated with Cetyl Pyridinium Chloride (CPC) (Sigma). […] Following addition of 3 ml scintillation liquid and vortexing the radioactivity of the ^35S-GAG-CPC complexes were in the samples were measured by scintillation counting (PerkinElmer, USA) and recorded as DPM/sample. The data then was then normalised for DNA and expressed as ^35-S-GAGs/μg DNA.\n(B) 24-well plates: After 48 hours incubation in the defined media, the media per well (containing soluble ^35S-labelled proteoglycans) was separated from the cells and transferred to a 2.0 ml microfuge tube. […] The 35S-GAG-CPC complexes collected through the fibre filter and the radioactivity of 35S-GAG was measured using the liquid scintillation analyser as describe above. The cells were extracted with the RNA reagent and aliquots used to determine gene expression and/or the DNA content was measured by the fluorometric assay and the results expressed as ^35-S-GAGs/μg DNA. […]"}, "human progenitor cells": {"test_system": "human progenitor cells", "assay": "Proteoglycan biosynthesis (35S-GAG) in 2 day monolayer cultures", "format": "cell-based", "conditions": "monolayers; FIG. 11", "text": "FIG. 11. A bar graph of the concentration dependent effects of Pentosan Polysulfate (PPS), on the biosynthesis of Proteoglycans (PGs) as determined by the incorporation of radioactively labelled sulfate into the sulfated glycosaminoglycans (^35S-GAG) of PGs after 2 day monolayer cultures of human progenitor cells. The data was expressed as ^35S-GAG radioactivity as decays per minute (DPM) normalised to DNA content. *=p<0.05; **=p<0.005; ***=p<0.0005.\nas §1, with “After 48-hour incubation at 37° C., 5% CO2 confluent monolayers were normally established. The medium was then changed to defined medium, which contained different concentrations of PPS with and without rhNC4 and 5 μCi/ml of ^35S—H2SO4 (PerkinElmer, USA).” left out\nThe data was expressed as ^35S-GAG radioactivity as decays per minute (DPM) normalised to DNA content. *=p<0.05; **=p<0.005; ***=p<0.0005."}, "Smad 2": {"test_system": "Smad 2", "assay": "RT-PCR gene expression, 2 day monolayer ATDC5 cultures", "format": "cell-based, murine", "conditions": "ATDC5 cells; concentrations shown to stimulate PG synthesis; FIG. 26", "text": "(§2) FIG. 26. RT-PCR detection of gene expression of Runx2 and the transduction proteins, Smad 2 and Smad 4 and the housekeeping gene NADPH expressed by Murine ATDC5 progenitor cells cultured in the presence and absence of rhNC4 (Batch PBA-1209P) and PPS for 2 days in monolayer cultures.\n(§3) Total RNA was isolated from Progenitor cells according to the manufacturer's instructions for the Aurum total RNA mini kit (Bio-Rad, USA). The RNA was reverse transcribed with RevertAid™ H Minus First Stand cDNA Synthesis Kit (Fermentas, USA). PCR products were transferred to an agarose gel, and visualized by ethidium bromide staining, and integrated densities calculated using Scion image analysis software, normalized to the house-keeping gene Glyceraldehydes-3-phosphate dehydrogenase (GAPDH) to permit semi-quantitative comparisons in mRNA levels. (L. Marchuk, P. Sciore, C. Reno, C. B. Frank, D. A. Hart. Postmortem stability of total RNA isolated from rabbit ligament, tendon and cartilage, Biochim Biophys Acta. 1379 (1998) 171-177. R. Boykiw, P. Sciore, C. Reno, L. Marchuk, C. B. Frank, D. A. Hart. Altered levels of extracellular matrix molecule mRNA in healing rabbit ligaments, Matrix Biol. 17 (1998) 371-378.)"}, "Smad 4": {"test_system": "Smad 4", "assay": "RT-PCR gene expression, 2 day monolayer ATDC5 cultures", "format": "cell-based, murine", "conditions": "ATDC5 cells; concentrations shown to stimulate PG synthesis; FIG. 26", "text": "as §2, §3"}},
  "note": "Where “and” joins values, the source holds several entries; their conditions need not be identical. Identical values can stand only once.",
  "data": [
    {"substance": "pentosan polysulfate [PPS]", "values": [
      {"measurement": "PPS concentration best with regard to DNA content", "setting": "[1]; FIG. 9", "result": "5 μl/ml and 10 μl/ml"},
      {"measurement": "PPS concentration best with regards to PG synthesis", "setting": "[1]; FIG. 9", "result": 10, "unit": "μl/ml"},
      {"measurement": "biosynthesis of proteoglycans", "setting": "[1]; FIG. 9", "result": "increased"},
      {"measurement": "biosynthesis of proteoglycans", "setting": "[1]; FIG. 9, listed as polysulfated polysaccharides", "result": "chondrogenic promoting effect"},
      {"measurement": "chondrogenic effect (proteoglycan synthesis)", "setting": "human progenitor cells", "result": "chondrogenic promoting effect"},
      {"measurement": "expression of Smad 2", "setting": "Smad 2", "result": "up regulation"},
      {"measurement": "expression of Smad 4", "setting": "Smad 4", "result": "up regulation"}
    ]}
  ]
}
